What was measured:
Assay in all cases: relative viability (nuclei count vs DMSO), 5 days (fraction); higher = more cells survive
CAP-232 + Pemetrexed = compound: C[C@H]([C@@H](C(=O)N)NC(=O)[C@@H]1CSSC[C@@H](C(=O)N[C@H](C(=O)N[C@@H](C(=O)N[C@H](C(=O)N1)CCCCN)CC2=CNC3=CC=CC=C32)CC4=CC=C(C=C4)O)NC(=O)[C@@H](CC5=CC=CC=C5)N)O [CAP-232] + Nc1nc2[nH]cc(CCc3ccc(C(=O)N[C@@H](CCC(=O)O)C(=O)O)cc3)c2c(=O)[nH]1 [Pemetrexed] (partner 0.2 µM)
Procedure, shortened: (§1)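 Relative viability divides the nuclei count in treated wells by that in vehicle wells. Lung cancer cell lines were seeded in 1536-well plates, dosed by pin tool the next day, and fixed and stained after 5 days in one step with final 0.05% Triton X-100, 1% formaldehyde and 1 ug/ml Hoechst. Dosing was a single drug or a fixed anchor-drug dose plus five library-drug doses (not always all listed) in √10 steps, and values are medians of duplicate plates imaged at 4×.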

CAP-232 + Bortezomib = compound: C[C@H]([C@@H](C(=O)N)NC(=O)[C@@H]1CSSC[C@@H](C(=O)N[C@H](C(=O)N[C@@H](C(=O)N[C@H](C(=O)N1)CCCCN)CC2=CNC3=CC=CC=C32)CC4=CC=C(C=C4)O)NC(=O)[C@@H](CC5=CC=CC=C5)N)O [CAP-232] + CC(C)C[C@H](NC(=O)[C@H](Cc1ccccc1)NC(=O)c1cnccn1)B(O)O [Bortezomib] (partner 0.002 µM)
Procedure, shortened: as §1

CAP-232 + Phenformin = compound: C[C@H]([C@@H](C(=O)N)NC(=O)[C@@H]1CSSC[C@@H](C(=O)N[C@H](C(=O)N[C@@H](C(=O)N[C@H](C(=O)N1)CCCCN)CC2=CNC3=CC=CC=C32)CC4=CC=C(C=C4)O)NC(=O)[C@@H](CC5=CC=CC=C5)N)O [CAP-232] + N=C(N)NC(=N)NCCc1ccccc1 [Phenformin] (partner 250 µM)
Procedure, shortened: as §1

CAP-232 + Tozasertib = compound: C[C@H]([C@@H](C(=O)N)NC(=O)[C@@H]1CSSC[C@@H](C(=O)N[C@H](C(=O)N[C@@H](C(=O)N[C@H](C(=O)N1)CCCCN)CC2=CNC3=CC=CC=C32)CC4=CC=C(C=C4)O)NC(=O)[C@@H](CC5=CC=CC=C5)N)O [CAP-232] + Cc1cc(Nc2cc(N3CCN(C)CC3)nc(Sc3ccc(NC(=O)C4CC4)cc3)n2)n[nH]1 [Tozasertib] (partner 0.1 µM)
Procedure, shortened: as §1

CAP-232 + Linsitinib = compound: C[C@H]([C@@H](C(=O)N)NC(=O)[C@@H]1CSSC[C@@H](C(=O)N[C@H](C(=O)N[C@@H](C(=O)N[C@H](C(=O)N1)CCCCN)CC2=CNC3=CC=CC=C32)CC4=CC=C(C=C4)O)NC(=O)[C@@H](CC5=CC=CC=C5)N)O [CAP-232] + C[C@]1(O)C[C@@H](c2nc(-c3ccc4ccc(-c5ccccc5)nc4c3)c3c(N)nccn32)C1 [Linsitinib] (partner 1 µM)
Procedure, shortened: as §1

Cell Line	relative viability (CAP-232 + Pemetrexed; first compound 0.4 µM)	relative viability (CAP-232 + Pemetrexed; first compound 1.265 µM)	relative viability (CAP-232 + Pemetrexed; first compound 4 µM)	relative viability (CAP-232 + Pemetrexed; first compound 12.65 µM)	relative viability (CAP-232 + Bortezomib; first compound 0.4 µM)	relative viability (CAP-232 + Bortezomib; first compound 1.265 µM)	relative viability (CAP-232 + Bortezomib; first compound 4 µM)	relative viability (CAP-232 + Bortezomib; first compound 12.65 µM)	relative viability (CAP-232 + Phenformin; first compound 0.4 µM)	relative viability (CAP-232 + Phenformin; first compound 1.265 µM)	relative viability (CAP-232 + Phenformin; first compound 4 µM)	relative viability (CAP-232 + Phenformin; first compound 12.65 µM)	relative viability (CAP-232 + Tozasertib; first compound 0.4 µM)	relative viability (CAP-232 + Tozasertib; first compound 1.265 µM)	relative viability (CAP-232 + Tozasertib; first compound 4 µM)	relative viability (CAP-232 + Tozasertib; first compound 12.65 µM)	relative viability (CAP-232 + Linsitinib; first compound 0.4 µM)	relative viability (CAP-232 + Linsitinib; first compound 1.265 µM)	relative viability (CAP-232 + Linsitinib; first compound 4 µM)	relative viability (CAP-232 + Linsitinib; first compound 12.65 µM)
EMC-BAC-2	0.44	0.412	0.422	0.442	1.13	1.11	1.14	1.12	0.541	0.498	0.526	0.465	0.304	0.276	0.289	0.247	0.785	0.796	0.821	0.774
NCI-H661	0.885	0.872	0.98	0.827	0.658	0.809	0.733	0.851	0.262	0.268	0.278	0.227	0.367	0.372	0.347	0.329	0.488	0.659	0.575	0.462
LU99A	0.181	0.139	0.182	0.177	1.14	1.1	1.18	1.05	0.866	0.751	0.839	0.8	0.253	0.263	0.296	0.287	0.52	0.504	0.506	0.533
LK-2	0.325	0.284	0.326	0.294					0.47	0.302	0.389	0.415	0.147	0.199	0.163	0.147	0.463	0.836	0.517	0.389
NCI-H3122	0.2	0.226	0.201	0.194	1.01	1.05	0.896	1	0.404	0.388	0.395	0.335	0.344	0.36	0.292	0.252	0.991	0.979	1.01	1.08
NCI-H2347	0.432	0.436	0.457	0.418	1.14	1.19	1.2	0.846	0.281	0.305	0.427	0.296	0.564	0.545	0.517	0.521	0.989	0.967	1.04	1.01
NCI-H1563	0.802	0.655	0.744	0.669	0.836	0.735	0.957	0.687	0.698	0.643	0.598	0.37					1.36	1.12	1.21	0.829
HCC-827	0.266	0.277	0.222	0.231	1.19	1.06	1.03	1	0.409	0.384	0.387	0.418	0.525	0.41	0.417	0.484	0.911	0.893	0.921	0.959
NCI-H1666	0.911	0.887	0.984	0.874	0.759		0.952	0.393	0.611	0.575	0.573	0.593	0.631	0.574	0.673	0.345	0.721		0.85	0.619
NCI-H358	0.151	0.171	0.187	0.187					0.319	0.295	0.278	0.315	0.102	0.115	0.089	0.0797	0.548	0.686	0.796	0.584
201T	0.341	0.332	0.356	0.303	1.17	1.04	1.05	1.1	0.487	0.419	0.416	0.443	1.04	0.91	0.979	0.926	1.05	0.974	0.978	0.948
RERF-LC-KJ	0.499	0.534	0.441	0.407	1.16	1.15	1.44	0.987	0.493	0.4	0.388	0.315	0.562	0.444	0.433	0.351	1.01	0.886	0.933	0.854
NCI-H2405	1.11	1.1	0.986	0.512	1	0.867	1.07	0.9	0.377	0.356	0.37	0.317	0.728	0.751	0.761	0.683	0.789	1.06	0.868	0.547
LXF-289	1.05	0.839	0.904	0.958	1.06	0.976	0.975	1	0.508	0.519	0.512	0.554	0.206	0.176	0.213	0.149	1.05	0.952	0.992	0.983
EKVX	0.392	0.375	0.413	0.33	1.15	0.931	0.925	0.917	0.232	0.218	0.23	0.233	0.352	0.376	0.422	0.31	1.01	1.07	0.972	0.737
